Each compound was assayed against T1, Human HPK1, catalytic domain (Homo sapiens, UniProt Q92918) (assay: HPK1-SLP76 TR-FRET Assay). Settings: 75 pM HPK1, ATP 10 uM, SLP76 10 nM, 30 min pre-incubation, 60 min reaction.
T1 sequence (Q92918 1-346): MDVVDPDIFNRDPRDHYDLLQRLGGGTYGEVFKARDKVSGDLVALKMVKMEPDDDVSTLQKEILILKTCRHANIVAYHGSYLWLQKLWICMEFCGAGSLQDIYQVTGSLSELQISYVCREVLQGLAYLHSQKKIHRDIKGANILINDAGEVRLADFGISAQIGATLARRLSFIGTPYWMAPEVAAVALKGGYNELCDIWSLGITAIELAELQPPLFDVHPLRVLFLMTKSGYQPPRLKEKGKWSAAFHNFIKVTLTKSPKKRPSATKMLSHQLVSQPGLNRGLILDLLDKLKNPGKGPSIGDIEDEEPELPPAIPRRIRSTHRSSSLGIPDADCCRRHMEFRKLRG
Format: biochemical

IC50	Compound
0.689 nM	COc1cc2c(cc1Nc1ncc3ccc(-c4cnn5c4CCC5)cc3n1)CNCC2 [Compound 1-35, 7-(5,6-dihydro-4H-pyrrolo[1,2-b]pyrazol-3-yl)-N-(6-methoxy-1,2,3,4-tetrahydroisoquinolin-7-yl)quinazolin-2-amine]
0.0326 nM	CN1CCc2ccc(Nc3ncc4c(N)c(F)c(-c5cnc6c(c5Cl)NCCO6)cc4n3)cc2C1 [Compound 2-160, 7-(8-chloro-2,3-dihydro-1H-pyrido[2,3-b][1,4]oxazin-7-yl)-6-fluoro-N~2~-(2-methyl-1,2,3,4-tetrahydroisoquinolin-7-yl)quinazoline-2,5-diamine]
2.93 nM	Cc1c(-c2c(F)c(N)c3cnc(Nc4ccc5c(c4)CN(C)CC5)nc3c2Cl)cnc2c1NCCO2 (single isomer, unassigned) [Compound 2-179, (+ or −)-8-chloro-6-fluoro-7-(8-methyl-2,3-dihydro-1H-pyrido[2,3-b][1,4]oxazin-7-yl)-N~2~- (2-methyl-1,2,3,4-tetrahydroisoquinolin-7-yl)quinazoline-2,5-diamine]
0.51 nM	COc1cc(F)ccc1Nc1ncc2c(N)c(F)c(-c3cnc4c(c3C)NCCO4)cc2n1 [Compound 2-69, 6-fluoro-N~2~-(4-fluoro-2-methoxyphenyl)-7-(8-methyl-2,3-dihydro-1H-pyrido[2,3-b][1,4]oxazin-7-yl)quinazoline-2,5-diamine]
22.2 nM	COc1cc2c(cc1Nc1ncc3ccc(-c4cnn(CC(C)O)c4)cc3n1)CN(C)CC2 (racemic) [Compound 1-102, (R and S)-1-(4-{2-[(6-methoxy-2-methyl-1,2,3,4-tetrahydroisoquinolin-7-yl)amino]quinazolin-7-yl}-1H-pyrazol-1-yl)propan-2-ol]
0.132 nM	Cc1c(-c2cc3nc(Nc4ccc(CC(=O)N(C)C)cc4)ncc3cc2F)cnc2c1NCCO2 [Compound 1-132, 2-(4-{[6-fluoro-7-(8-methyl-2,3-dihydro-1H-pyrido[2,3-b][1,4]oxazin-7-yl)quinazolin-2-yl]amino}phenyl)-N,N-dimethylacetamide]
82 nM	COc1cc2c(cc1Nc1ncc3ccc(-c4ccc(CC#N)cc4)cc3n1)CNCC2 [Compound 1-64, (4-{2-[(6-methoxy-1,2,3,4-tetrahydroisoquinolin-7-yl)amino]quinazolin-7-yl}phenyl)acetonitrile]
3.09 nM	COc1cc2c(cc1Nc1ncc3c(N)c(F)c(-c4cnc5c(c4C)NCCO5)cc3n1)C(CO)N(C)CC2 (racemic) [Compound 2-46, (R and S)-(7-{[5-amino-6-fluoro-7-(8-methyl-2,3-dihydro-1H-pyrido[2,3-b][1,4]oxazin-7-yl)quinazolin-2-yl]amino}-6-methoxy-2-methyl-1,2,3,4-tetrahydroisoquinolin-1-yl)methanol]
136 nM	COc1cc2c(cc1Nc1ncc3ccc(NCC(=O)N4CCCC4)cc3n1)CN(C)CC2 [Compound 3-65, 2-({2-[(6-methoxy-2-methyl-1,2,3,4-tetrahydroisoquinolin-7-yl)amino]quinazolin-7-yl}-amino)-1-(pyrrolidin-1-yl)ethan-1-one]
0.0883 nM	Cc1c(-c2cc3nc(Nc4ccc5c(c4)CN(C)CC5)ncc3cc2F)cnc2c1NCCO2 [Compound 1-114, 6-fluoro-7-(8-methyl-2,3-dihydro-1H-pyrido[2,3-b][1,4]oxazin-7-yl)-N-(2-methyl-1,2,3,4-tetrahydroisoquinolin-7-yl)quinazolin-2-amine]
0.0251 nM	Cc1c(-c2cc3nc(Nc4ccc5c(c4)CCN(C)C5)ncc3c(N)c2F)cnc2c1NCCO2 [Compound 2-158, 6-fluoro-7-(8-methyl-2,3-dihydro-1H-pyrido[2,3-b][1,4]oxazin-7-yl)-N~2~- (2-methyl-1,2,3,4-tetrahydroisoquinolin-6-yl)quinazoline-2,5-diamine]
469 nM	COc1cc2c(cc1Nc1ncc3c(N)c(F)c(-c4ccc(-c5ncco5)cc4C)cc3n1)CN(C)CC2 [Compound 2-60, 6-fluoro-N~2~-(6-methoxy-2-methyl-1,2,3,4-tetrahydroisoquinolin-7-yl)-7-[2-methyl-4-(1,3-oxazol-2-yl)phenyl]quinazoline-2,5-diamine]
19.1 nM	COc1cncc(-c2ccc3cnc(Nc4cc5c(cc4OC)CCN(C)C5)nc3c2)c1 [Compound 1-17, N-(6-methoxy-2-methyl-1,2,3,4-tetrahydroisoquinolin-7-yl)-7-(5-methoxypyridin-3-yl)quinazolin-2-amine]
771 nM	COc1cc2c(cc1Nc1ncc3ccc(N4CCCC(CN5CCCC5=O)C4)cc3n1)CN(C)CC2 (racemic) [Compound 3-20, (S and R)-1-1(1-12-[(6-methoxy-2-methyl-1,2,3,4-tetrahydroiso-quinolin-7-yl)amino]quinazolin-7-yl}piperidin-3-yl)methyl]-pyrrolidin-2-one]
0.103 nM	Cc1c(-c2cc3nc(Nc4ccc(CS(C)(=O)=O)cc4)ncc3c(N)c2F)cnc2c1NCC(C)(C)O2 [Compound 2-165, 6-fluoro-N~2~-{4-[(methylsulfonyl)methyl]phenyl}-7-(3,3,8-trimethyl-2,3-dihydro-1H-pyrido[2,3-b][1,4]oxazin-7-yl)quinazoline-2,5-diamine]
0.267 nM	CN1Cc2cc(Nc3ncc4c(N)c(F)c(-c5cnc6c(c5)NCCO6)cc4n3)ccc2C2(CC2)C1 [Compound 2-151, 7-(2,3-dihydro-1H-pyrido[2,3-b][1,4]oxazin-7-yl)-6-fluoro-N~2~-(2′-methyl-2′,3′-dihydro-1′H-spiro[cyclopropane-1,4′-isoquinolin]-7′-yl)quinazoline-2,5-diamine]
96.7 nM	COc1cc2c(cc1Nc1ncc3ccc(N[C@H]4CCN(C)C4=O)cc3n1)CN(C)CC2 [Compound 3-49, (3S)-3-({2-[(6-methoxy-2-meth-yl-1,2,3,4-tetrahydroisoquinolin-7-yl)amino]quinazolin-7-yl}-amino)-1-methylpyrrolidin-2-one]
0.0791 nM	COC1CC(NC(=O)c2ccc(Nc3ncc4c(N)c(F)c(-c5cnc6c(c5C)NCCO6)cc4n3)cc2)C1 (centres unmarked) [Compound 2-58, 4-{[5-amino-6-fluoro-7-(8-methyl-2,3-dihydro-1H-pyrido[2,3-b][1,4]oxazin-7-yl)quinazolin-2-yl]amino}-N-(3-methoxycyclobutyl) benzamide]
138 nM	COc1cc2c(cc1Nc1ncc3ccc(NC4C5COCC54)cc3n1)CN(C)CC2 (centres unmarked) [Compound 3-74, N~2~-(6-methoxy-2-methyl-1,2,3,4-tetrahydroisoquinolin-7-yl)-N~7~-(3-oxabicyclo[3.1.0]-hexan-6-yl)quinazoline-2,7-diamine]
17.2 nM	COc1cc(C2CC2)ccc1Nc1ncc2c(N)c(F)c(-c3cnc4c(c3C)NCCO4)cc2n1 [Compound 2-176, N~2~-(4-cyclopropyl-2-methoxyphenyl)-6-fluoro-7-(8-methyl-2,3-dihydro-1H-pyrido[2,3-b][1,4]oxazin-7-yl)quinazoline-2,5-diamine]
387 nM	COc1cc2c(cc1Nc1ncc3ccc(-c4ccc(NCCN5CCOCC5)nc4)cc3n1)CNCC2 [Compound 1-48, N-(6-methoxy-1,2,3,4-tetrahydroisoquinolin-7-yl)-7-(6-{[2-(morpholin-4-yl)ethyl]amino}pyridin-3-yl)quinazolin-2-amine]
0.372 nM	COc1cc2c(cc1Nc1ncc3c(N)cc(-c4cnccc4C)cc3n1)CNCC2 [Compound 2-37, N^2-(6-methoxy-1,2,3,4-tetrahydroisoquinolin-7-yl)-7-(4-methylpyridin-3-yl)quinazoline-2,5-diamine]
222 nM	COc1cc2c(cc1Nc1ncc3ccc(-c4cccc(C(=O)NCCN5CCCC5)c4)cc3n1)CNCC2 [Compound 1-83, 3-{2-[(6-methoxy-1,2,3,4-tetrahydroisoquinolin-7-yl)amino]quinazolin-7-yl}-N-[2-(pyrrolidin-1-yl)ethyl]benzamide]
0.487 nM	Cc1c(-c2c(F)c(N)c3cnc(Nc4ccc(CC(C)(C)O)cc4)nc3c2Cl)cnc2c1NCCO2 [Compound 2-164, 1-(4-{[5-amino-8-chloro-6-fluoro-7-(8-methyl-2,3-dihydro-1H-pyrido[2,3-b][1,4]oxazin-7-yl)quinazolin-2-yl]amino}phenyl)-2-methylpropan-2-ol]
0.101 nM	C[C@H]1COC(=O)N1c1cc(N)c2cnc(Nc3ccc(S(C)(=O)=O)cc3)nc2c1 [Compound 3-76, (S)-3-(5-amino-2-((4-(methyl-sulfonyl)phenyl)amino)quinaz-olin-7-yl)-4-methyloxazolidin-2-one]
0.235 nM	Cc1c(-c2c(F)c(N)c3cnc(Nc4ccc(N5CCOC5=O)cc4)nc3c2Cl)cnc2c1NCCO2 (single isomer, unassigned) [Compound 2-156]
0.595 nM	CNC(=O)C1(c2ccc(Nc3ncc4cc(F)c(-c5cnc6c(c5C)NCCO6)cc4n3)cc2)CCCC1 [Compound 1-120, 1-(4-{[6-fluoro-7-(8-methyl-2,3-dihydro-1H-pyrido[2,3-b][1,4]oxazin-7-yl)quinazolin-2-yl]amino}phenyl)-N-methylcyclopentane-1-carboxamide]
0.0726 nM	CNC(=O)Cc1ccc(Nc2ncc3cc(F)c(-c4cnc5c(c4C)NCCO5)cc3n2)cc1 [Compound 1-130, 2-(4-{[6-fluoro-7-(8-methyl-2,3-dihydro-1H-pyrido[2,3-b][1,4]oxazin-7-yl)quinazolin-2-yl]amino}phenyl)-N-methylacetamide]
0.382 nM	Cc1c(-c2cc3nc(Nc4ccc(C5(C#N)CC5)cc4)ncc3c(N)c2F)cnc2c1NCCO2 [Compound 2-18, 1-(4-{[5-amino-6-fluoro-7-(8-methyl-2,3-dihydro-1H-pyrido[2,3-b][1,4]oxazin-7-yl)quinazolin-2-yl]amino}phenyl)cyclo-propane-1-carbonitrile]

From US20230399341A1, “7-PHENYL SUBSTITUTED 2-AMINOQUINAZOLINE INHIBITORS OF HPK1” (MERCK SHARP & DOHME LLC, priority 2020, published 2023)
